How the values were obtained:
[1] = Brain distribution after oral or intravenous administration to normal mice; format: in vivo, mouse; settings: for Kp: mouse, brain, FIG. 4C
Description: FIGS. 4A to 4C illustrate a result of showing a concentration remaining in the brain for each time period after oral (p.o. 10 mg/kg) or intravenous administration (i.v. 1 mg/kg) of N-acetyl sphingosine to normal mice (FIG. 4A), a result of showing a concentration remaining in the brain after 24 hours (FIG. 4B), and a pharmacokinetic test analysis result for a brain distribution (FIG. 4C) (n=3/group).
In order to apply the compounds of the present invention to the diagnosis of degenerative brain diseases, it is important to distribute the compounds well to the brain after administration. To confirm this, the N-AS was administered orally (10 mg/kg) or through tail vein (1 mg/kg), and then the brain was extracted by time to measure the concentration of N-AS, and after 24 hours, the brain was extracted to measure the concentration of the remaining N-AS.

wild type COX2 = target: T1, wild type COX2 (Homo sapiens, UniProt P35354); assay: Filter binding assay / enzymatic analysis of COX2, wild type; settings: [14C]N-acetyl sphingosine binding to wild-type COX2, saturation plot; FIG. 3
T1 sequence (P35354 18-604): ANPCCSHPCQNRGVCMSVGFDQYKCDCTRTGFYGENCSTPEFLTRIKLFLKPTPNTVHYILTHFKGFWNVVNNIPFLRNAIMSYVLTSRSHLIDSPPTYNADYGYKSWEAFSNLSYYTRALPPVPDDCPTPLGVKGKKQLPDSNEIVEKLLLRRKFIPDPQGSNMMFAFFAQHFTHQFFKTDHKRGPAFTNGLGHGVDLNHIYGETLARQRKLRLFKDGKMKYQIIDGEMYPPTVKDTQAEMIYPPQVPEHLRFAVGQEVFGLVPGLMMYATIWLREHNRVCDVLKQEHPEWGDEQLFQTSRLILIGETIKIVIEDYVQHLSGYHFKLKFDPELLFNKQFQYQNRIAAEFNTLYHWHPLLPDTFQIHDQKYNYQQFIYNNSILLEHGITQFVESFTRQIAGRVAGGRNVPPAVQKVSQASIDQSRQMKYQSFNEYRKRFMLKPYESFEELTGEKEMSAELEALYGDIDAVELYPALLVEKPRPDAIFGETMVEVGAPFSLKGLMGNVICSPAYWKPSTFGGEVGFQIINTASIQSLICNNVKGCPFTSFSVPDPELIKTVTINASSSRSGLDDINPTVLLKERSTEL
Description: The binding activity of wild type COX2 or mutant COX2 (N181A, T564A, S565A, S567A) and N-acetyl sphingosine (N-AS) was analyzed by filter binding assay (Nat Commun. 2018 Apr. 16; 9(1):1479).
The binding rate (Vbinding) of [^14C]N-acetyl sphingosine (American Radiolabeled Chemicals, ARC1024) to wild-type COX2 and mutant COX2 (N181A, T564A, S565A, S567A) was expressed as the concentration of N-acetyl sphingosine. […] By using the calculated Kcat and KM, Kcat/KM (catalytic efficiency), which has been widely used as a measure of enzyme performance, was calculated from wild-type COX2 and mutant-type COX2 (N181A, T564A, S565A, S567A).

[2] = target: T2, COX2 protein in microglia (Mus musculus, UniProt Q05769); assay: [14C] bound to COX2 immunoprecipitated from microglia after oral [14C]N-acetyl sphingosine; format: in vivo; settings: 5-month-old APP/PS1 Alzheimer's animal model compared to control (WT); 10 μCi oral; after 1 hour; FIG. 6
T2 construct: from tissue; host or cells: microglia isolated from the cerebrum of wild-type and APP/PS1 mice (C57BL/6 background)
T2 sequence (Q05769 18-604): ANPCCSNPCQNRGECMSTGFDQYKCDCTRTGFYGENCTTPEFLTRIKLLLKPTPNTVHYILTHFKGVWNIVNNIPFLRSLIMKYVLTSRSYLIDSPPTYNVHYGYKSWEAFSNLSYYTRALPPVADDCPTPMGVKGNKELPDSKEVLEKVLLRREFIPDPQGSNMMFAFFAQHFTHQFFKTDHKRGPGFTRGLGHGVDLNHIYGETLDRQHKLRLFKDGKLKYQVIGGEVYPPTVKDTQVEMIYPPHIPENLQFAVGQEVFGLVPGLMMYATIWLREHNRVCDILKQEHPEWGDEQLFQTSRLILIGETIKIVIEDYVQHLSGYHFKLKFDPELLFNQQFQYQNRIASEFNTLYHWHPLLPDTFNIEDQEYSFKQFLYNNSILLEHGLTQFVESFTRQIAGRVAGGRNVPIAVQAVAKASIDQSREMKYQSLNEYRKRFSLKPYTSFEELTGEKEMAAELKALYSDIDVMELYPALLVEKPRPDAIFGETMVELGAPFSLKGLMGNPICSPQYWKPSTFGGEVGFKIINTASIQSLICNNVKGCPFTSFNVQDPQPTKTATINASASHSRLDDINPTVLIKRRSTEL
Excerpt: Mouse experiments have been approved by the Kyungpook National University Institutional Animal Care and Use Committee (IACUC). A transgenic mouse line overexpressing APPswe (hAPP695swe) or PS1 (presenilin-1M146V) based on C57BL/6 mice (Charles River, UK) was used [Hereinafter, “APP mouse”: refers to a mouse overexpressing APPswe, “PS1 mouse”: refers to a mouse overexpressing presenilin-1M146V; GlaxoSmithKline]
After oral administration of 10 μCi of [^14C]N-acetyl sphingosine (American Radiolabeled Chemicals, ARC1024) to 5-month-old wild-type and APP/PS1 mice, microglia were isolated from the cerebra of the mice after 1 hour.
(§1) The COX2 protein of isolated microglia and neuroblastoma SH-SY5Y were isolated by immunoprecipitation, and then liquid scintillation counting was performed on [^14C].
After 1 hour, the COX2 in microglia was isolated from the control and the Alzheimer's animal model by immunoprecipitation, and the amount of COX2 labeled with [^14C] was confirmed.

[3] = target: T3, COX2 protein in neuroblastoma SH-SY5Y (Homo sapiens, UniProt P35354); assay: [14C] bound to COX2 immunoprecipitated from neuroblastoma SH-SY5Y cells treated with [14C]N-acetyl sphingosine; format: cell-based; settings: neuroblastoma SH-SY5Y compared to control; 2 μCi; after 1 hour; FIG. 8
T3 construct: endogenous in cells; host or cells: SH-SY5Y neuroblastoma cells
T3 sequence (P35354 18-604): T1 sequence (P35354 18-604)
Description: In addition, neuroblastoma SH-SY5Y was treated with 2 μCi of [^14C]N-acetyl sphingosine (American Radiolabeled Chemicals, ARC1024) for 1 hour, and then cells were collected.
as §1
In other words, [^14C]N-acetyl sphingosine ([^14C]N-AS), in which carbon of N-AS strongly binding to COX2 was substituted with an isotope, was treated to the cancer cells (2 μCi). After 1 hour, the COX2 was isolated from the control and the cancer cells, neuroblastoma SH-SY5Y by immunoprecipitation, and the amount of COX2 labeled with [^14C] was confirmed.

| Kp ([1]; intravenous, tail vein administration 1 mg/kg) | Kp ([1]; oral administration 10 mg/kg) | concentration of N-AS in the brain ([1]; oral 10 mg/kg or tail vein 1 mg/kg, by time and after 24 hours, FIGS. 4A and 4B) | Kcat (wild type COX2) [s⁻¹] | Structure (SMILES) | amount of [14C]-labeled COX2 in microglia [2] | amount of [14C]-labeled COX2 in cancer cells [3] |
| --- | --- | --- | --- | --- | --- | --- |
| 2.16 | 3.18 | high | 0.008 | CCCCCCCCCCCCC/C=C/[C@@H](O)[C@H](CO)NC(C)=O [N-AS, N-acetyl sphingosine] | – | – |
| – | – | – | – | CCCCCCCCCCCCC/C=C/[C@@H](O)[C@H](CO)N[14C](C)=O [[^14C]N-AS, [^14C]N-acetyl sphingosine] | increased | increased |
